Results: ChEMBL document CHEMBL1255373, “In vitro antibacterial activity of CE-156811, a novel analog derived from hygromycin A” (2008)
In brackets after ≈: the same amount, converted by molar mass.

Legend:
Format in all cases: functional
[1] = tested on: Klebsiella pneumoniae; assay: Antibacterial activity against Klebsiella pneumoniae clinical isolate by broth microdilution method
[2] = tested on: Klebsiella pneumoniae; assay: Antibacterial activity against extended-spectrum beta-lactamase producing Klebsiella pneumoniae clinical isolate by broth microdilution method
[3] = tested on: Serratia marcescens; assay: Antibacterial activity against Serratia marcescens clinical isolate by broth microdilution method
[4] = tested on: Proteus mirabilis; assay: Antibacterial activity against Proteus mirabilis clinical isolate by broth microdilution method
[5] = tested on: Proteus vulgaris; assay: Antibacterial activity against Proteus vulgaris clinical isolate by broth microdilution method
[6] = tested on: Morganella morganii; assay: Antibacterial activity against Morganella morganii clinical isolate by broth microdilution method
[7] = tested on: Providencia rettgeri; assay: Antibacterial activity against Providencia rettgeri clinical isolate by broth microdilution method
[8] = tested on: Salmonella sp.; assay: Antibacterial activity against Salmonella sp. by broth microdilution method
[9] = tested on: Shigella sp.; assay: Antibacterial activity against Shigella sp. by broth microdilution method
[10] = tested on: Pseudomonas aeruginosa; assay: Antibacterial activity against Pseudomonas aeruginosa clinical isolate by broth microdilution method
[11] = tested on: Burkholderia cepacia; assay: Antibacterial activity against Burkholderia cepacia clinical isolate by broth microdilution method
[12] = tested on: Acinetobacter sp.; assay: Antibacterial activity against Acinetobacter sp. by broth microdilution method
[13] = tested on: Stenotrophomonas maltophilia; assay: Antibacterial activity against Stenotrophomonas maltophilia clinical isolate by broth microdilution method
[14] = tested on: Legionella pneumophila; assay: Antibacterial activity against Legionella pneumophila clinical isolate by broth microdilution method
[15] = tested on: Staphylococcus aureus; assay: Antibacterial activity against […] Staphylococcus aureus ATCC 29213 by broth microdilution method
[16] = tested on: Staphylococcus aureus; assay: Antibacterial activity against linezolid-resistant Staphylococcus aureus 01A1220 by broth microdilution method
[17] = tested on: Staphylococcus aureus; assay: Antibacterial activity against linezolid-resistant Staphylococcus aureus 01A1221 by broth microdilution method
[18] = tested on: Enterococcus faecalis; assay: Antibacterial activity against […] Enterococcus faecalis ATCC 29212 by broth microdilution method
[19] = tested on: Enterococcus faecalis; assay: Antibacterial activity against linezolid-resistant Enterococcus faecalis 03A1128 by broth microdilution method
[20] = tested on: Enterococcus faecium; assay: Antibacterial activity against linezolid-resistant Enterococcus faecium 03B1073 by broth microdilution method
[21] = tested on: Enterococcus faecium; assay: Antibacterial activity against linezolid-resistant Enterococcus faecium 03B1077 by broth microdilution method
[22] = tested on: Enterococcus faecium; assay: Antibacterial activity against linezolid-resistant Enterococcus faecium 03B1074 by broth microdilution method
[23] = tested on: Enterococcus faecium; assay: Antibacterial activity against linezolid-resistant Enterococcus faecium 03B1075 by broth microdilution method
[24] = tested on: Enterococcus faecium; assay: Antibacterial activity against linezolid-resistant Enterococcus faecium 03B1078 by broth microdilution method
[25] = tested on: Enterococcus faecium; assay: Antibacterial activity against linezolid-resistant Enterococcus faecium 03B1076 by broth microdilution method
[26] = tested on: Staphylococcus aureus; assay: Antibacterial activity against methicillin-resistant Staphylococcus aureus 01A1095 by broth microdilution method
[27] = tested on: Enterococcus faecium; assay: Antibacterial activity against vancomycin-resistant Enterococcus faecium 03B1022 by broth microdilution method
[28] = tested on: Streptococcus pyogenes; assay: Antibacterial activity against Streptococcus pyogenes 02C0203 by broth microdilution method
[29] = tested on: Streptococcus pneumoniae; assay: Antibacterial activity against Streptococcus pneumoniae 02J1046 by broth microdilution method
[30] = tested on: Staphylococcus aureus; assay: Bacteriostatic activity against methicillin-resistant Staphylococcus aureus 01A1095 assessed as log reduction in bacterial growth at 1 to 8 times MIC after 24 hrs
[31] = tested on: Enterococcus faecium; assay: Bacteriostatic activity against vancomycin resistant Enterococcus faecium 03B1022 assessed as log reduction in bacterial growth at 1 to 8 times MIC after 24 hrs
[32] = tested on: Streptococcus pyogenes; assay: Bacteriostatic activity against Streptococcus pyogenes 02C0203 assessed as log reduction in bacterial growth at 1 to 8 times MIC after 24 hrs
[33] = tested on: Streptococcus pneumoniae; assay: Bacteriostatic activity against Streptococcus pneumoniae 02J1046 assessed as log reduction in bacterial growth at 1 to 8 times MIC after 24 hrs

C/C(=C\c1cc(F)c(OC[C@H](F)C2CC2)cc1F)C(=O)N[C@@H]1[C@H](O)[C@@H](O)[C@H]2OCO[C@H]2[C@@H]1O
MIC50 [1]: > 64 µg/mL
MIC90 [1]: > 64 µg/mL
MIC50 [2]: > 64 µg/mL
MIC90 [2]: > 64 µg/mL
MIC50 [3]: > 64 µg/mL
MIC90 [3]: > 64 µg/mL
MIC50 [4]: > 64 µg/mL
MIC90 [4]: > 64 µg/mL
MIC50 [5]: > 64 µg/mL
MIC90 [5]: > 64 µg/mL
MIC50 [6]: > 64 µg/mL
MIC90 [6]: > 64 µg/mL
MIC50 [7]: > 64 µg/mL
MIC90 [7]: > 64 µg/mL
MIC50 [8]: > 64 µg/mL
MIC90 [8]: > 64 µg/mL
MIC50 [9]: > 64 µg/mL
MIC90 [9]: > 64 µg/mL
MIC50 [10]: > 64 µg/mL
MIC90 [10]: > 64 µg/mL
MIC50 [11]: > 64 µg/mL
MIC90 [11]: > 64 µg/mL
MIC50 [12]: > 64 µg/mL
MIC90 [12]: > 64 µg/mL
MIC50 [13]: > 64 µg/mL
MIC90 [13]: > 64 µg/mL
MIC50 [14]: 1 µg/mL (≈ 2.11 µM)
MIC90 [14]: 2 µg/mL (≈ 4.22 µM)
MIC [15]: 1 µg/mL (≈ 2.11 µM)
MIC [16]: 16 µg/mL (≈ 33.8 µM)
MIC [17]: 16 µg/mL (≈ 33.8 µM)
MIC [18]: 1 µg/mL (≈ 2.11 µM)
MIC [19]: 16 µg/mL (≈ 33.8 µM)
MIC [20]: 1 µg/mL (≈ 2.11 µM)
MIC [21]: 2 µg/mL (≈ 4.22 µM)
MIC [22]: 4 µg/mL (≈ 8.45 µM)
MIC [23]: 4 µg/mL (≈ 8.45 µM)
MIC [24]: 4 µg/mL (≈ 8.45 µM)
MIC [25]: 8 µg/mL (≈ 16.9 µM)
MIC [26]: 1 µg/mL (≈ 2.11 µM)
MIC [27]: 1 µg/mL (≈ 2.11 µM)
MIC [28]: 0.25 µg/mL (≈ 0.528 µM)
MIC [29]: 0.125 µg/mL (≈ 0.264 µM)
FC [30]: 1.5
FC [31]: 1.5
FC [32]: 1.5
FC [33]: 1.5
